Measured values as given in ChEMBL document CHEMBL1135997, “Nonaromatic sulfonamide group as an ideal anchor for potent human carbonic anhydrase inhibitors: role of hydrogen-bonding networks in ligand binding and drug design” (J Med Chem, 2002).
pKi: −log10 of the molar value.

Experiments:
Carbonic anhydrase 2 = Carbonic anhydrase 2 (Homo sapiens, UniProt P00918)
Carbonic anhydrase 1 = Carbonic anhydrase 1 (Homo sapiens, UniProt P00915)
Carbonic anhydrase 1, sequence (P00915 whole entry): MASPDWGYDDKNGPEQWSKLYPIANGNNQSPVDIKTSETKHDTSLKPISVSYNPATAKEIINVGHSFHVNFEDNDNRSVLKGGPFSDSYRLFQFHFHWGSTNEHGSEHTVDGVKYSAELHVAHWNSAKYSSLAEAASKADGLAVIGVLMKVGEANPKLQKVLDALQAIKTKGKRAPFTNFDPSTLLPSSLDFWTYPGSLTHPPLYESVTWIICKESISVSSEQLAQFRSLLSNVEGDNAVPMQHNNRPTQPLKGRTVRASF

Row | Compound | pKi (Carbonic anhydrase 2) | pKi (Carbonic anhydrase 1)
1 | C/C(=N/S(N)(=O)=O)c1ccc(N(C)C)cc1 | 7.70 | –
2 | O=C(NS(=O)(=O)O)NS(=O)(=O)c1ccc(F)cc1 | 6.05 | 7.10
3 | NS(=O)(=O)NS(=O)(=O)c1cccc(C(=O)O)c1 | 8.00 | 8.22
4 | NS(=O)(=O)NC(=O)NS(=O)(=O)c1ccc(F)cc1 | 7.70 | 8.22
5 | NS(=O)(=O)NS(=O)(=O)c1c(F)c(F)c(F)c(F)c1F | 8.00 | 8.52
6 | O=S(=O)(O)NS(=O)(=O)c1c(F)c(F)c(F)c(F)c1F [(PENTAFLUOROPHENYL)SULFONYLSULFAMIC ACID] | 5.92 | 7.30
